Test results reported in paper PMC5356695, “A phase 1 study of oral ridaforolimus in pediatric patients with advanced solid tumors” (Oncotarget, 2016).
Read-outs that look alike come from different tables or passages of the source.

Tested on: pediatric patients with advanced solid tumors
Details: for Leukopenia (treatment-related AE): laboratory values only
Method: This phase 1, multicenter, open-label study was conducted at a total of 8 study sites (3 study sites in the United States and 5 Innovative Therapies for Children with Cancer [ITCC] Consortium centers [2 in the United Kingdom and 3 in France]) between January 31, 2012, and the data cutoff, January 14, 2014 (ClinicalTrials.gov identifier NCT01431534; European Clinical Trials Database [EudraCT] number 2011-000729-55). An enteric-coated tablet formulation of ridaforolimus was orally administered for 5 consecutive days and not administered for 2 consecutive days per week in 28-day cycles until progression, unacceptable toxicity, or consent withdrawal. […] Dose escalation was conducted by using a modified toxicity probability intervals method that targeted a 30% DLT rate and started at 22 mg/m^2 (the equivalent of the adult RP2D [27], a 40-mg dose in adults with a BSA of 1.8 m^2). […] Dosing was adjusted based on BSA and rounded to the nearest 10-mg tablet. Patients were to be treated at sequentially rising dose levels until a preliminary MTD was identified.
Toxicity was graded according to the National Cancer Institute Common Terminology Criteria for Adverse Events, version 4.0 [42]. Safety data were reported for all patients who received at least 1 dose of the study drug. […] Once the RP2D of ridaforolimus was defined, an expansion cohort to be treated at the RP2D was planned to obtain additional safety, tolerability, and pharmacokinetic data.

In the case of `CO[C@H]1C[C@@H]2CC[C@@H](C)[C@@](O)(O2)C(=O)C(=O)N2CCCC[C@H]2C(=O)O[C@H]([C@H](C)C[C@@H]2CC[C@@H](OP(C)(C)=O)[C@H](OC)C2)CC(=O)[C@H](C)/C=C(\C)[C@@H](O)[C@@H](OC)C(=O)[C@H](C)C[C@H](C)/C=C/C=C/C=C/1C` [ridaforolimus], the “Patients with serious adverse events related to study treatment” value (22 mg/m^2, grade 3 oral herpes) is reported as 1 patient, the “Stomatitis (treatment-related AE)” value (22 mg/m^2 n = 4, any grade) is reported as 2 (50) n (%) and the “Thrombocytopenia (treatment-related AE)” value (22 mg/m^2 n = 4, any grade) is reported as 2 (50) n (%). For the same compound, the “Vomiting (treatment-related AE)” value (22 mg/m^2 n = 4, any grade) was 1 (25) n (%), the “Leukopenia (treatment-related AE)” value (22 mg/m^2 n = 4, any grade) was 1 (25) n (%) and the “Anemia (treatment-related AE)” value (22 mg/m^2 n = 4, grades 3–4) was 0 n (%). For the same compound, the “Decreased appetite (treatment-related AE)” value (“Decreased appetite” for short) (22 mg/m^2 n = 4, grades 3–4) was 0 n (%), the “Decreased weight (treatment-related AE)” value (22 mg/m^2 n = 4, grades 3–4) was 0 n (%) and the “Diarrhea (treatment-related AE)” value (22 mg/m^2 n = 4, grades 3–4) was 0 n (%). For the same compound, the “Dry mouth (treatment-related AE)” value (22 mg/m^2 n = 4, grades 3–4) was 0 n (%), the “Dysgeusia (treatment-related AE)” value (22 mg/m^2 n = 4, grades 3–4) was 0 n (%) and the “Epistaxis (treatment-related AE)” value (22 mg/m^2 n = 4, grades 3–4) was 0 n (%). For the same compound, the “Fatigue (treatment-related AE)” value (22 mg/m^2 n = 4, grades 3–4) was 0 n (%), the “Headache (treatment-related AE)” value (22 mg/m^2 n = 4, grades 3–4) was 0 n (%) and the “Hypercholesterolemia (treatment-related AE)” value (“Hypercholesterolemia” for short) (22 mg/m^2 n = 4, grades 3–4) was 0 n (%). For the same compound, the “Hyperglycemia (treatment-related AE)” value (22 mg/m^2 n = 4, grades 3–4) was 0 n (%), the “Hypertriglyceridemia (treatment-related AE)” value (shortened to “Hypertriglyceridemia”) (22 mg/m^2 n = 4, grades 3–4) was 0 n (%) and the “Hypocalcemia (treatment-related AE)” value (22 mg/m^2 n = 4, grades 3–4) was 0 n (%). For the same compound, the “Hypokalemia (treatment-related AE)” value (22 mg/m^2 n = 4, grades 3–4) was 0 n (%), the “Hypophosphatemia (treatment-related AE)” value (22 mg/m^2 n = 4, grades 3–4) was 1 (25) n (%) and the “Increased ALT (treatment-related AE)” value (22 mg/m^2 n = 4, grades 3–4) was 1 (25) n (%). The “Increased AST (treatment-related AE)” value (22 mg/m^2 n = 4, grades 3–4) was 0 n (%), the “Increased alkaline phosphatase (treatment-related AE)” value (22 mg/m^2 n = 4, grades 3–4) was 0 n (%) and the “Increased bilirubin (treatment-related AE)” value (22 mg/m^2 n = 4, grades 3–4) was 0 n (%). For the same compound, the “Increased γ-glutamyltransferase (treatment-related AE)” value (22 mg/m^2 n = 4, grades 3–4) was 0 n (%), the “Lymphopenia (treatment-related AE)” value (22 mg/m^2 n = 4, grades 3–4) was 0 n (%) and the “Nausea (treatment-related AE)” value (22 mg/m^2 n = 4, grades 3–4) was 0 n (%). For the same compound, the “Neutropenia (treatment-related AE)” value (22 mg/m^2 n = 4, grades 3–4) was 0 n (%), the “Oral herpes (treatment-related AE)” value (22 mg/m^2 n = 4, grades 3–4) was 1 (25) n (%) and the “Patients with ≥1 treatment-related adverse event” value (22 mg/m^2 n = 4, grades 3–4) was 2 (50) n (%). The “Photophobia (treatment-related AE)” value (22 mg/m^2 n = 4, grades 3–4) was 0 n (%), the “Rash (treatment-related AE)” value (22 mg/m^2 n = 4, grades 3–4) was 0 n (%) and the “Stomatitis (treatment-related AE)” value (22 mg/m^2 n = 4, grades 3–4) was 0 n (%). For the same compound, the “Thrombocytopenia (treatment-related AE)” value (22 mg/m^2 n = 4, grades 3–4) was 0 n (%), the “Vomiting (treatment-related AE)” value (22 mg/m^2 n = 4, grades 3–4) was 0 n (%) and the “Leukopenia (treatment-related AE)” value (22 mg/m^2 n = 4, grades 3–4) was 0 n (%). The “Stomatitis (treatment-related AE)” value (28 mg/m^2 n = 3, any grade) was 3 (100) n (%), the “Thrombocytopenia (treatment-related AE)” value (28 mg/m^2 n = 3, any grade) was 1 (33) n (%) and the “Vomiting (treatment-related AE)” value (28 mg/m^2 n = 3, any grade) was 0 n (%). The “Leukopenia (treatment-related AE)” value (28 mg/m^2 n = 3, any grade) was 2 (67) n (%), the “Anemia (treatment-related AE)” value (28 mg/m^2 n = 3, grades 3–4) was 0 n (%) and the “Decreased appetite” value (28 mg/m^2 n = 3, grades 3–4) was 0 n (%). The “Decreased weight (treatment-related AE)” value (28 mg/m^2 n = 3, grades 3–4) was 0 n (%), the “Diarrhea (treatment-related AE)” value (28 mg/m^2 n = 3, grades 3–4) was 0 n (%) and the “Dry mouth (treatment-related AE)” value (28 mg/m^2 n = 3, grades 3–4) was 0 n (%). For the same compound, the “Dysgeusia (treatment-related AE)” value (28 mg/m^2 n = 3, grades 3–4) was 0 n (%), the “Epistaxis (treatment-related AE)” value (28 mg/m^2 n = 3, grades 3–4) was 0 n (%) and the “Fatigue (treatment-related AE)” value (28 mg/m^2 n = 3, grades 3–4) was 0 n (%). The “Headache (treatment-related AE)” value (28 mg/m^2 n = 3, grades 3–4) was 0 n (%), the “Hypercholesterolemia” value (28 mg/m^2 n = 3, grades 3–4) was 1 (33) n (%) and the “Hyperglycemia (treatment-related AE)” value (28 mg/m^2 n = 3, grades 3–4) was 0 n (%). The “Hypertriglyceridemia” value (28 mg/m^2 n = 3, grades 3–4) was 0 n (%), the “Hypocalcemia (treatment-related AE)” value (28 mg/m^2 n = 3, grades 3–4) was 0 n (%) and the “Hypokalemia (treatment-related AE)” value (28 mg/m^2 n = 3, grades 3–4) was 0 n (%). For the same compound, the “Hypophosphatemia (treatment-related AE)” value (28 mg/m^2 n = 3, grades 3–4) was 0 n (%), the “Increased ALT (treatment-related AE)” value (28 mg/m^2 n = 3, grades 3–4) was 1 (33) n (%) and the “Increased AST (treatment-related AE)” value (28 mg/m^2 n = 3, grades 3–4) was 0 n (%). The “Increased alkaline phosphatase (treatment-related AE)” value (28 mg/m^2 n = 3, grades 3–4) was 0 n (%), the “Increased bilirubin (treatment-related AE)” value (28 mg/m^2 n = 3, grades 3–4) was 0 n (%) and the “Increased γ-glutamyltransferase (treatment-related AE)” value (28 mg/m^2 n = 3, grades 3–4) was 0 n (%). For the same compound, the “Lymphopenia (treatment-related AE)” value (28 mg/m^2 n = 3, grades 3–4) was 0 n (%), the “Nausea (treatment-related AE)” value (28 mg/m^2 n = 3, grades 3–4) was 0 n (%) and the “Neutropenia (treatment-related AE)” value (28 mg/m^2 n = 3, grades 3–4) was 0 n (%). The “Oral herpes (treatment-related AE)” value (28 mg/m^2 n = 3, grades 3–4) was 0 n (%), the “Patients with ≥1 treatment-related adverse event” value (28 mg/m^2 n = 3, grades 3–4) was 2 (67) n (%) and the “Photophobia (treatment-related AE)” value (28 mg/m^2 n = 3, grades 3–4) was 0 n (%). For the same compound, the “Rash (treatment-related AE)” value (28 mg/m^2 n = 3, grades 3–4) was 0 n (%), the “Stomatitis (treatment-related AE)” value (28 mg/m^2 n = 3, grades 3–4) was 0 n (%) and the “Thrombocytopenia (treatment-related AE)” value (28 mg/m^2 n = 3, grades 3–4) was 1 (33) n (%). For the same compound, the “Vomiting (treatment-related AE)” value (28 mg/m^2 n = 3, grades 3–4) was 0 n (%), the “Leukopenia (treatment-related AE)” value (28 mg/m^2 n = 3, grades 3–4) was 0 n (%) and the “Patients discontinued due to an adverse event (grade 5 gastric perforation related to underlying disease)” value (33 mg/m^2 (n = 13), 8%) was 1 patients. For the same compound, the “Patients with DLT (grade 3 increased ALT)” value (33 mg/m^2, 18 patients evaluable for DLTs overall) was 1 patient, the “Patients with serious adverse events related to study treatment” value (33 mg/m^2, grade 2 rectal pain, grade 2 seizure) was 2 patients and the “Stomatitis (treatment-related AE)” value (33 mg/m^2 n = 13, any grade) was 10 (77) n (%). For the same compound, the “Thrombocytopenia (treatment-related AE)” value (33 mg/m^2 n = 13, any grade) was 10 (77) n (%), the “Vomiting (treatment-related AE)” value (33 mg/m^2 n = 13, any grade) was 2 (15) n (%) and the “Leukopenia (treatment-related AE)” value (33 mg/m^2 n = 13, any grade) was 4 (31) n (%). The “Anemia (treatment-related AE)” value (33 mg/m^2 n = 13, grades 3–4) was 0 n (%), the “Decreased appetite” value (33 mg/m^2 n = 13, grades 3–4) was 0 n (%) and the “Decreased weight (treatment-related AE)” value (33 mg/m^2 n = 13, grades 3–4) was 0 n (%). The “Diarrhea (treatment-related AE)” value (33 mg/m^2 n = 13, grades 3–4) was 0 n (%), the “Dry mouth (treatment-related AE)” value (33 mg/m^2 n = 13, grades 3–4) was 0 n (%) and the “Dysgeusia (treatment-related AE)” value (33 mg/m^2 n = 13, grades 3–4) was 0 n (%). The “Epistaxis (treatment-related AE)” value (33 mg/m^2 n = 13, grades 3–4) was 0 n (%), the “Fatigue (treatment-related AE)” value (33 mg/m^2 n = 13, grades 3–4) was 0 n (%) and the “Headache (treatment-related AE)” value (33 mg/m^2 n = 13, grades 3–4) was 0 n (%). The “Hypercholesterolemia” value (33 mg/m^2 n = 13, grades 3–4) was 0 n (%), the “Hyperglycemia (treatment-related AE)” value (33 mg/m^2 n = 13, grades 3–4) was 0 n (%) and the “Hypertriglyceridemia” value (33 mg/m^2 n = 13, grades 3–4) was 1 (8) n (%). For the same compound, the “Hypocalcemia (treatment-related AE)” value (33 mg/m^2 n = 13, grades 3–4) was 0 n (%), the “Hypokalemia (treatment-related AE)” value (33 mg/m^2 n = 13, grades 3–4) was 0 n (%) and the “Hypophosphatemia (treatment-related AE)” value (33 mg/m^2 n = 13, grades 3–4) was 0 n (%). For the same compound, the “Increased ALT (treatment-related AE)” value (33 mg/m^2 n = 13, grades 3–4) was 3 (23) n (%) and the “Increased AST (treatment-related AE)” value (33 mg/m^2 n = 13, grades 3–4) was 1 (8) n (%).
